In US20070287691A1, “METHOD FOR ACTIVATING THE LIPID CATABOLIC METABOLISM IN ENTERIC EPITHELIUM AND IMPROVING THE LIPID METABOLISM IN ENTERIC EPITHELIUM” (KAO CORPORATION, priority 2001, published 2007):

Tested on: rat small-intestine epithelial cell strain, IEC-6
Test: Inhibition test of triacylglycerol synthesis in the small intestine epithelium (Nile Red, FACS)
Format: cell-based
Conditions: relative value, linoleic acid = 100; 200 μM, 24 hours
Experimental: Using FCS (fetal calf serum)-free, Dulbecco's modified Eagle's medium (D-MEM) with 5% FBS and 70 μg/mL kanamycin added therein, a rat small-intestine epithelial cell strain, IEC-6, was incubated under 5% CO2 at 37° C. […] Twenty-four hours later, the individual cultures were washed with PBS and subsequent to treatment with tripsin, were peeled off from Culture dishes. Those cultures were separately suspended in portions of HBSS which contained Nile Red (100 ng/mL). Subsequent to incubation at room temperature for […], FACS analysis was conducted. From average fluorescence intensities, synthesized quantities of triacylglycerols were measured.

Structure (SMILES)	Fluorescence intensity (synthesized quantity of triacylglycerols)
CCCCC/C=C\C/C=C\C/C=C\C/C=C\CCCC(=O)O [Arachidonic acid]	87
CC/C=C\C/C=C\C/C=C\C/C=C\C/C=C\C/C=C\CCC(=O)O [Docosahexaenoic acid]	49
CC/C=C\C/C=C\C/C=C\C/C=C\C/C=C\CCCC(=O)O [Eicosapentaenoic acid]	52
CCCCC/C=C\C/C=C\CCCCCCCC(=O)O [Linoleic acid]	100
CCCCCCCC/C=C\CCCCCCCC(=O)O [Oleic acid]	191
CC/C=C\C/C=C\C/C=C\CCCCCCCC(=O)O [α-Linolenic acid]	42
CCCCC/C=C\C/C=C\C/C=C\CCCCC(=O)O [γ-Linolenic acid]	70
